Test results as given in patent US8580802B2, “Pyrrolo[2,3-D]pyrimidines as inhibitors of Janus kinases” (Vertex Pharmaceuticals Incorporated, priority 2005, dated 2013).
pKi: −log10 of the molar value.

Columns and labels:
JAK2 = JAK2 (Homo sapiens, UniProt O60674); assay: JAK2 Inhibition Assay; assay type: biochemical; details: JAK-2 enzyme, 15 μM poly(Glu)4Tyr, 12 μM ATP
Procedure: (§1) Compounds were screened for their ability to inhibit JAK3 using the assay shown below. Reactions were carried out in a kinase buffer containing 100 mM HEPES (pH 7.4), 1 mM DTT, 10 mM MgCl2, 25 mM NaCl, and 0.01% BSA. Substrate concentrations in the assay were 5 μM ATP (200 uCi/μmole ATP) and 1 μM poly(Glu)4Tyr. Reactions were carried out 25° C. and 1 nM JAK3.
(§2) To each well of a 96 well polycarbonate plate was added 1.5 μl of a candidate JAK3 inhibitor along with 50 μl of kinase buffer containing 2 μM poly(Glu)4Tyr and 10 μM ATP. This was then mixed and 50 μl of kinase buffer containing 2 nM JAK3 enzyme was added to start the reaction. After 20 minutes at room temperature (25° C.), the reaction was stopped with 50 μl of 20% trichloroacetic acid (TCA) that also contained 0.4 mM ATP. The entire contents of each well were then transferred to a 96 well glass fiber filter plate using a TomTek Cell Harvester. After washing, 60 μl of scintillation fluid was added and ^33P incorporation detected on a Perkin Elmer TopCount.
The assays were as described above in Example 36 except that JAK-2 enzyme was used, the final poly(Glu)4Tyr concentration was 15 μM, and final ATP concentration was 12 μM.

JAK3 = target: T1, JAK3 (Homo sapiens, UniProt P52333); assay: JAK3 Inhibition Assay; assay type: biochemical; details: 1 nM JAK3, 1 μM poly(Glu)4Tyr, 5 μM ATP, 25° C.; read-out: enzyme inhibition data (Ki) JAK3
T1 sequence (P52333 1-1124): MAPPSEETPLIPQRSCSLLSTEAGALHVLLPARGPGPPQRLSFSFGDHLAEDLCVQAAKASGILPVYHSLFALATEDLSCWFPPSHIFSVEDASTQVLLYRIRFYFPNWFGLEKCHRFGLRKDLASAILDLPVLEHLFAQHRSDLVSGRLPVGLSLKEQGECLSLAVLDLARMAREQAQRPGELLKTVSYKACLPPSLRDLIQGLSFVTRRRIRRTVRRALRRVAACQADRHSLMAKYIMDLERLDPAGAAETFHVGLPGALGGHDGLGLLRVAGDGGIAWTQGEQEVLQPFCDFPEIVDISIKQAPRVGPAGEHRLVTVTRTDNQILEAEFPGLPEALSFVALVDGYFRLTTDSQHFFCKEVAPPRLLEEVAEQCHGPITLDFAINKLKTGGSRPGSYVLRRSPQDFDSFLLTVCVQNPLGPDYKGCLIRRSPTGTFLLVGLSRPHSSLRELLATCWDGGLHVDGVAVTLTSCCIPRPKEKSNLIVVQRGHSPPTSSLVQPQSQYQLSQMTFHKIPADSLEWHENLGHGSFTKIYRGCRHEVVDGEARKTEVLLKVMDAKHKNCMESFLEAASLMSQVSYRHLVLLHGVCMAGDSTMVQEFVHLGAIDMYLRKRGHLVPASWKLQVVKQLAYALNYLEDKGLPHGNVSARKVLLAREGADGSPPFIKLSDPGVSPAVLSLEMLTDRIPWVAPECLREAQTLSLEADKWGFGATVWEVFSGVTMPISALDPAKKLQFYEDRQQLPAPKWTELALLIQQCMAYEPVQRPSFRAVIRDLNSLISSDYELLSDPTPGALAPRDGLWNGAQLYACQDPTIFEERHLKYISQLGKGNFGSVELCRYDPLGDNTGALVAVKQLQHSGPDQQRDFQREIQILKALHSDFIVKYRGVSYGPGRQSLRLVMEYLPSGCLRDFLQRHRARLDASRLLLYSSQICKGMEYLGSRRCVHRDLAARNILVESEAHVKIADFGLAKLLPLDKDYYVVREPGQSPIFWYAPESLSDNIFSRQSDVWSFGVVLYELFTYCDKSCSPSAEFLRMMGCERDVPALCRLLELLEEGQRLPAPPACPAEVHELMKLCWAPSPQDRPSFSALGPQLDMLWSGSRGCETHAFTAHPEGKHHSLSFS
Procedure: as §1, §2

Sequence of JAK2 (O60674 whole entry): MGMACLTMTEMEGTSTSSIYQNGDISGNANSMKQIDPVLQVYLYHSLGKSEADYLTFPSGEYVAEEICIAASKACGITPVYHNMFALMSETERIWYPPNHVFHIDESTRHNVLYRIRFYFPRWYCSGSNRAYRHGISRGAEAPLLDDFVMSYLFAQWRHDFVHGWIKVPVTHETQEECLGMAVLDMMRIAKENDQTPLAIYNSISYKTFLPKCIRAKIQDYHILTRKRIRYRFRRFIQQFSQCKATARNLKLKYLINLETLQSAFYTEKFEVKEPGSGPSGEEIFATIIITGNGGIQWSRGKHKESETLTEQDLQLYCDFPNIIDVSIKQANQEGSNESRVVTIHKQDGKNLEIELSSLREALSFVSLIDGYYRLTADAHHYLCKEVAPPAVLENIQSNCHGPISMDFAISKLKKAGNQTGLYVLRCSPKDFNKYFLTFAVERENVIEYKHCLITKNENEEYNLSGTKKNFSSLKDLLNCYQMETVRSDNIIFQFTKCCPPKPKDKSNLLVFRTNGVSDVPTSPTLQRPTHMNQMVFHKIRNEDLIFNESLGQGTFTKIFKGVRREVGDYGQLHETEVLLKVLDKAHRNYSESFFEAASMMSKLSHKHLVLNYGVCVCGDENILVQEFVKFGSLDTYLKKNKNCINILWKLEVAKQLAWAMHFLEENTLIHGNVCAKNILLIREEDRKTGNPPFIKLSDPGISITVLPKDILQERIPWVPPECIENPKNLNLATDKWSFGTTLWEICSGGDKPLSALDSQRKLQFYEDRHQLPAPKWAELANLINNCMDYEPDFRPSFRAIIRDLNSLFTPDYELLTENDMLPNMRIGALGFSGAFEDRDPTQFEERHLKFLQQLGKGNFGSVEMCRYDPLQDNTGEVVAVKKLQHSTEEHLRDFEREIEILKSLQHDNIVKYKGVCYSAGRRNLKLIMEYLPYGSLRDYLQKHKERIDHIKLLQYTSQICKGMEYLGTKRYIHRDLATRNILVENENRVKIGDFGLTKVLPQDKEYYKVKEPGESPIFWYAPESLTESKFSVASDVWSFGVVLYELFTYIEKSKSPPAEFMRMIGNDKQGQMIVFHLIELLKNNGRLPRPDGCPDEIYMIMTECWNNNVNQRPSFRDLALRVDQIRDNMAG

Row | SMILES | pKi (JAK2) | pKi (JAK3)
1 | C[C@H](Nc1nc(-c2c[nH]c3ncncc23)nc(N2CCOCC2)n1)C(=O)NCC(F)(F)F [Compound 37, (S)-2-(4-morpholino-6-(7H-pyrrolo[2,3-d]pyrimidin-5-yl)-1,3,5-triazin-2-ylamino)-N-(2,2,2-trifluoroethyl)propanamide] | < 5.30 | < 5.30
2 | C[C@H](Nc1cc(N2CCCC2)nc(-c2c[nH]c3ncncc23)n1)C(=O)NCC(F)(F)F [Compound 32, (S)-2-(6-(pyrrolidin-1-yl)-2-(7H-pyrrolo[2,3-d]pyrimidin-5-yl)pyrimidin-4-ylamino)-N-(2,2,2-trifluoroethyl)propanamide] | < 5.30 | < 5.30
3 | CNC(=O)C(CC(F)(F)F)Nc1nc(-c2c[nH]c3ncncc23)ncc1F (stereo not shown) [Compound 43, 2-(5-fluoro-2-(7H-pyrrolo[2,3-d]pyrimidin-5-yl)pyrimidin-4-ylamino)-4,4,4-trifluoro-N-methylbutanamide] | 5.30 to 6.30 | 5.30 to 6.30
4 | CN(c1ccnc(-c2c[nH]c3ncncc23)n1)C(C(=O)NCC(F)(F)F)c1ccccc1 (stereo not shown) [Compound 97] | 5.30 to 6.30 | > 6.30
5 | CN(c1nc(-c2c[nH]c3ncncc23)ncc1F)C1(C(=O)NCC(F)(F)F)CC1 [Compound 99] | 5.30 to 6.30 | > 6.30
6 | O=C(NCC(F)(F)F)C1(Nc2nc(-c3c[nH]c4ncncc34)ncc2F)CCCCC1 [Compound 62] | > 6.30 | > 6.30
7 | CC[C@@H](Nc1ccnc(-c2c[nH]c3ncncc23)n1)C(=O)NCC(F)(F)F [Compound 69] | > 6.30 | > 6.30
8 | CC[C@](C)(Nc1ccnc(-c2c[nH]c3ncncc23)n1)C(=O)NCC(F)(F)F [Compound 88] | > 6.30 | > 6.30
9 | O=C(CNc1ccnc(-c2c[nH]c3ncncc23)n1)NCC(F)(F)F [Compound 76] | > 6.30 | > 6.30
10 | CC(=O)N1[C@H](C)CN(c2cccc(-c3c[nH]c4ncncc34)n2)C[C@@H]1C [Compound 1, 1-((2S,6R)-4-(6-(7H-pyrrolo[2,3-d]pyrimidin-5-yl)pyridin-2-yl)-2,6-dimethylpiperazin-1-yl)ethanone] | > 6.30 | > 6.30
11 | C[C@H](Nc1ccnc(-c2c[nH]c3ncncc23)n1)c1ccc(F)cc1 [Compound 84] | > 6.30 | > 6.30
12 | C[C@H](Nc1ncnc(-c2c[nH]c3ncncc23)n1)C(=O)NCC(F)(F)F [Compound 79, (S)-2-(4-(7H-pyrrolo[2,3-d]pyrimidin-5-yl)-1,3,5-triazin-2-ylamino)-N-(2,2,2-trifluoroethyl)propanamide] | 5.30 to 6.30 | > 6.30
13 | O=C(NCC(F)(F)F)[C@H]1CCCN1c1nc(-c2c[nH]c3ncncc23)ncc1F [Compound 27] | > 6.30 | > 6.30
14 | O=C(NCC(F)(F)F)C1(Nc2ncnc(-c3c[nH]c4ncncc34)n2)CCCC1 [Compound 92] | > 6.30 | > 6.30
15 | CC[C@H](Nc1nc(-c2c[nH]c3ncncc23)ncc1F)C(=O)NCC(F)(F)F [Compound 41, (S)-2-(5-fluoro-2-(7H-pyrrolo[2,3-d]pyrimidin-5-yl)pyrimidin-4-ylamino)-N-(2,2,2-trifluoroethyl)butanamide] | 5.30 to 6.30 | > 6.30
16 | O=C(NCC(F)(F)F)[C@H](CO)Nc1ccnc(-c2c[nH]c3ncncc23)n1 [Compound 51] | < 5.30 | < 5.30
17 | C[C@@H](Nc1ccnc(-c2c[nH]c3ncncc23)n1)C(=O)NCC(F)(F)F [Compound 39, (R)-2-(2-(7H-pyrrolo[2,3-d]pyrimidin-5-yl)pyrimidin-4-ylamino)-N-(2,2,2-trifluoroethyl)propanamide] | > 6.30 | > 6.30
18 | CC[C@](C)(Nc1nc(-c2c[nH]c3ncncc23)ncc1F)C(=O)NCC(F)(F)F [Compound 77] | 5.30 to 6.30 | > 6.30
19 | O=C(CNc1nc(-c2c[nH]c3ncncc23)ncc1F)NCC(F)(F)F [Compound 70] | 5.30 to 6.30 | > 6.30
20 | O=C(NCC(F)(F)F)[C@@H]1CCCN1c1nc(-c2c[nH]c3ncncc23)ncc1F [Compound 26] | < 5.30 | 5.30 to 6.30
